Reference: US6555548B2, “Compounds for treating fibromyalgia and chronic fatigue syndrome” (Pharmacia & Upjohn Company, priority 2000, dated 2003)

Row | melting point [°C] | Structure (SMILES)
1 | 210 to 213 | CN[C@@H]1Cc2cccc3[nH]c(=S)n(c23)C1
2 | 195 to 196 | CN[C@@H]1Cc2cccc3[nH]c(=S)n(c23)C1.O=C(O)/C=C\C(=O)O
